# US8173689B2 (Novartis AG, priority 2006, dated 2012)
# Read-outs that look alike come from different tables or passages of the source.
# Columns and labels:
# [1] = biological target: T1, cytoplasmic domain of the human CSF-1R (Homo sapiens, UniProt P07333); assay: In vitro kinase assay for colony stimulating factor-1 receptor (AlphaScreen); format: biochemical; conditions: tested at about 1 μM, read-out: CSF-1R percent inhibition
# T1 construct: Recombinant protein corresponding to the cytoplasmic domain of the human CSF-1R; purchased Invitrogen Corporation, Carlsbad, Calif; PV3249
# T1 sequence (P07333 539-972 limits assumed): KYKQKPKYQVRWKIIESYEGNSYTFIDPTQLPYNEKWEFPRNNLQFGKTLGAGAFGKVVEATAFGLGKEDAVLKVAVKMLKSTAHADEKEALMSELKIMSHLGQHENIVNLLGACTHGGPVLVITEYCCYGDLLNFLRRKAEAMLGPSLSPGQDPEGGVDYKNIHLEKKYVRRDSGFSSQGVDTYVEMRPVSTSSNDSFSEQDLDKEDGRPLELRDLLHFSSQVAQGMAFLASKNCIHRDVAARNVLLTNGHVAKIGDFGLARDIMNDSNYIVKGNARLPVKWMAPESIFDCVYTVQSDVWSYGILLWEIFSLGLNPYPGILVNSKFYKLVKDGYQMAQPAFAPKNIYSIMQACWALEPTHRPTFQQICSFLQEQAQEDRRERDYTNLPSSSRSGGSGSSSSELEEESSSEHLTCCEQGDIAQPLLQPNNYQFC
# Method in brief: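 4 nM enzyme, 1 μM ATP; buffer 50 mM Hepes pH 7.5, 5 mM MgCl2, 10 mM MnCl2, 1.0 mM DTT, 0.1% BSA, 0.01% Tween 80. Readout: AlphaScreen, PT66 acceptor/streptavidin donor, overnight.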
# kinase domain of PDGFRβ = biological target: T2, kinase domain of PDGFRβ (Homo sapiens, UniProt P09619); assay: Inhibition of PDGFRb kinase signaling in an in vitro biochemical assay (alphascreen); conditions: tested at about 1 μM, read-out: PDGFRβ percent inhibition
# T2 construct: The kinase domain of PDGFRβ was assayed in 50 mM Hepes; purchased Invitrogen P3082
# T2 sequence (P09619 600-962 limits assumed): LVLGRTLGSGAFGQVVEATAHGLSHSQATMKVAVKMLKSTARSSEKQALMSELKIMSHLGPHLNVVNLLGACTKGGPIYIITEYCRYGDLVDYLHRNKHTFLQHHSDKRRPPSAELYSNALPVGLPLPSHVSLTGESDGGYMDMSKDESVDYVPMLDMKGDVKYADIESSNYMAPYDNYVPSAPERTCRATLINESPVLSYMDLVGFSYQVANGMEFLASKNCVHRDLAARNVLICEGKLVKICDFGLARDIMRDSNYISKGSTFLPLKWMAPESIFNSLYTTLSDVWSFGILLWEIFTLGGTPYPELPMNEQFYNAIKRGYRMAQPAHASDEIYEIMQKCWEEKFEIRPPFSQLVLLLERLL
# [2] = system: MNFS60 (murine AML cells); assay: Cell viability assay in MCSF dependent MNFS60 cells (Cell Titer Glo); format: cell-based; conditions: Mus musculus, tested at about 1 μM, read-out: M-NFS-60 CP percent inhibition
# Procedure: Cell viability was assessed by Cell Titer Glo, Promega. […] Test compounds were serially diluted (3 fold) in DMSO to 500× the final concentration. […] Final concentration of MCSF is 10 ng/ml. Cells were incubated for 72 hrs at 37° C., 5% CO2. After the incubation 100 μl Cell Titer Glo is added to each well to determine viable cells. The assay was performed according to the manufacturer's instruction (Promega Corporation, Madison, Wis. USA). Each experimental condition was performed in triplicate. Raw data was imported in Abase and EC50s calculated with XL-fit data analysis software.
# kinase domain of cKIT = biological target: T3, kinase domain of cKIT (Homo sapiens, UniProt P10721); assay: Inhibition of cKIT kinase signaling in an in vitro biochemical assay (alphascreen); conditions: tested at about 1 μM, read-out: cKit percent inhibition
# T3 construct: The kinase domain of cKIT was assayed in 50 mM Hepes; purchased Upstate 14-559
# T3 sequence (P10721 589-937 limits assumed): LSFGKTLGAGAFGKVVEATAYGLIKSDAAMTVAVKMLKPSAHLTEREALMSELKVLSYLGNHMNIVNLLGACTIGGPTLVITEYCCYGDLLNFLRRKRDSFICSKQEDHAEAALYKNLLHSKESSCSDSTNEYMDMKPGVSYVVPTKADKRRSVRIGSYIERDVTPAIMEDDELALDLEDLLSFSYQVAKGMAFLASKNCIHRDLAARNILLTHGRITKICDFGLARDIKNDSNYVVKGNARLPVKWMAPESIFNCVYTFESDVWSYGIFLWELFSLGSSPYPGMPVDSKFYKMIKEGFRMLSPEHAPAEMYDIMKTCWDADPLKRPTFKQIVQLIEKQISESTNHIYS
inhibition at 1 µM ([1]; compounds of Table 3),inhibition at 1 µM (kinase domain of PDGFRβ; compounds of Table 3),inhibition at 1 µM (kinase domain of cKIT; compounds of Table 3),inhibition at 1 µM [1],inhibition at 1 µM (kinase domain of PDGFRβ),inhibition at 1 µM (kinase domain of cKIT),Compound,inhibition at 1 µM ([2]; compounds of Table 3),inhibition at 1 µM ([2]; MCSF dependent MNFS60 cells),inhibition at 1 µM ([2]; MNFS60 cells)
100%,0%,98%,–,–,–,"c1cncc(CNc2nc3ccc(Oc4ccnc5ccccc45)cc3s2)c1 [Example 254, N-(pyridin-3-ylmethyl)-6-(quinolin-4-yloxy)benzo[d]thiazol-2-amine]",100%,–,–
98%,7%,24%,–,–,–,"CCc1nc(-c2cc(Oc3ccc4nc(N[C@@H](C)C5CCCCC5)sc4c3)ccn2)[nH]c1CC [Example 272, (S)-N-(1-cyclohexylethyl)-6-(2-(4,5-diethyl-1H-imidazol-2-yl)pyridin-4-yloxy)benzo[d]thiazol-2-amine]",38%,–,–
100%,12%,38%,–,–,–,CNC(=O)c1cc(Oc2ccc3nc(NCC4COc5ccccc5O4)sc3c2)ccn1 (stereo not shown) [Compound 144],41%,–,–
100%,69%,100%,–,–,–,"C[C@@H](Nc1nc2ccc(Oc3ccnc4ccccc34)cc2s1)C1CCCCC1 [Example 243, (R)-N-(1-cyclohexylethyl)-6-(quinolin-4-yloxy)benzo[d]thiazol-2-amine]",76%,–,–
–,–,–,100%,99%,100%,"Cn1cc(-c2cc(Oc3ccc4nc(NCc5ccccc5OC(F)F)sc4c3)ccn2)cn1 [Example 356, N-(2-(difluoromethoxy)benzyl)-6-(2-(1-methyl-1H-pyrazol-4-yl)pyridin-4-yloxy)benzo[d]thiazol-2-amine]",–,100%,–
100%,26%,70%,–,–,–,"FC(F)(F)Oc1ccc2c(Oc3ccc4nc(NCC5CCCCC5)sc4c3)ccnc2c1 [Example 228, N-(cyclohexylmethyl)-6-(7-(trifluoromethoxy)quinolin-4-yloxy)benzo[d]thiazol-2-amine]",32%,–,–
100%,56%,64%,–,–,–,"CC[C@H](C)[C@@H](CO)Nc1nc2ccc(Oc3ccnc4ccccc34)cc2s1 [Example 234, (2S,3S)-3-methyl-2-(6-(quinolin-4-yloxy)benzo[d]thiazol-2-ylamino)pentan-1-ol]",78%,–,–
–,–,–,99%,18%,88%,"CNC(=O)c1cc(Oc2ccc3nc(NCc4cc(F)ccc4OC)oc3c2)ccn1 [Compound 115, 4-[2-(5-Fluoro-2-methoxy-benzylamino)-benzooxazol-6-yloxy]-pyridine-2-carboxylic acid methylamide]",–,–,21%
–,–,–,100%,18%,9%,"CNC(=O)c1cc(Oc2ccc3nc(N[C@H]4CCCN(C(C)=O)C4)sc3c2)ccn1 [Example 304, (S)-4-(2-(1-acetylpiperidin-3-ylamino)benzo[d]thiazol-6-yloxy)-N-methylpicolinamide]",–,23%,–
–,–,–,98%,0%,9%,"CNC(=O)c1cc(Oc2ccc3nc(NCc4c(Cl)cccc4Cl)oc3c2)ccn1 [Compound 76, 4-[2-(2,6-Dichloro-benzylamino)-benzooxazol-6-yloxy]-pyridine-2-carboxylic acid methylamide]",–,–,0%
100%,100%,27%,–,–,–,CNC(=O)c1cc(Oc2ccc3nc(NC4C[C@@H]5CC[C@H]4C5)sc3c2)ccn1 (stereo partly shown) [Compound 140],25%,–,–
–,–,–,100%,44%,91%,"Cn1cc(-c2cc(Oc3ccc4nc(NC[C@@H](O)c5ccccc5)sc4c3)ccn2)cn1 [Example 357, (S)-2-(6-(2-(1-methyl-1H-pyrazol-4-yl)pyridin-4-yloxy)benzo[d]thiazol-2-ylamino)-1-phenylethanol]",–,100%,–
–,–,–,97%,17%,7%,"CNC(=O)c1cc(Oc2ccc3nc(NCc4c(OC)cc(OC)cc4OC)oc3c2)ccn1 [Compound 113, 4-[2-(2,4,6-Trimethoxy-benzylamino)-benzooxazol-6-yloxy]-pyridine-2-carboxylic acid methylamide]",–,–,19%
100%,11%,100%,–,–,–,"COc1ccccc1CNc1nc2ccc(Oc3ccnc4ccccc34)cc2s1 [Example 257, N-(2-methoxybenzyl)-6-(quinolin-4-yloxy)benzo[d]thiazol-2-amine]",100%,–,–
–,–,–,100%,98%,100%,"C[C@@H](Nc1nc2ccc(Oc3ccnc(-c4cnn(C)c4)c3)cc2s1)C1CCCCC1 [Example 354, (R)-N-(1-cyclohexylethyl)-6-(2-(1-methyl-1H-pyrazol-4-yl)pyridin-4-yloxy)benzo[d]thiazol-2-amine]",–,100%,–
98%,0%,13%,–,–,–,"CNC(=O)c1cc(Oc2ccc3nc(N[C@@H]4CCCC[C@H]4NC(C)=O)sc3c2)ccn1 [Example 298, 4-(2-((1R,2R)-2-acetamidocyclohexylamino)benzo[d]thiazol-6-yloxy)-N-methylpicolinamide]",41%,–,–
99%,7%,23%,–,–,–,"Nc1ncc(-c2cc(Oc3ccc4nc(N[C@@H]5CCCC[C@H]5O)sc4c3)ccn2)cc1C(F)(F)F [Example 282, (1R,2R)-2-(6-(6'-amino-5'-(trifluoromethyl)-2,3'-bipyridin-4-yloxy)benzo[d]thiazol-2-ylamino)cyclohexanol]",22%,–,–
100%,5%,26%,–,–,–,"C[C@H](Nc1nc2ccc(Oc3ccnc(-c4ccnn4C)c3)cc2s1)C1CCCCC1 [Example 277, (S)-N-(1-cyclohexylethyl)-6-(2-(1-methyl-1H-pyrazol-5-yl)pyridin-4-yloxy)benzo[d]thiazol-2-amine]",24%,–,–
–,–,–,100%,52%,51%,"CNc1cc(Oc2ccc3nc(NCC4CCCCC4)sc3c2)ccn1 [Example 338, N-(cyclohexylmethyl)-6-(2-(methylamino)pyridin-4-yloxy)benzo[d]thiazol-2-amine]",–,44%,–
–,–,–,100%,49%,75%,"CNC(=O)c1cc(Oc2ccc3nc(N[C@@H]4CCCC[C@H]4O)sc3c2C)ccn1 [Example 377, 4-(2-((1R,2R)-2-hydroxycyclohexylamino)-7-methylbenzo[d]thiazol-6-yloxy)-N-methylpicolinamide]",–,93%,–
100%,2%,24%,–,–,–,CNC(=O)c1cc(Oc2ccc3nc(N[C@@H](C)C(C)C)sc3c2)ccn1 [Compound 150],22%,–,–

Compound,inhibition at 1 µM ([1]; compounds of Table 3),inhibition at 1 µM (kinase domain of PDGFRβ; compounds of Table 3),inhibition at 1 µM (kinase domain of cKIT; compounds of Table 3),inhibition at 1 µM [1],inhibition at 1 µM (kinase domain of PDGFRβ),inhibition at 1 µM (kinase domain of cKIT),inhibition at 1 µM ([2]; compounds of Table 3),inhibition at 1 µM ([2]; MCSF dependent MNFS60 cells),inhibition at 1 µM ([2]; MNFS60 cells)
Cc1cc(Oc2ccc3nc(NCC4CCCCC4)sc3c2)ccn1 [Example 202],100%,19%,32%,–,–,–,17%,–,–
